Our source for the IC50 values is ChEMBL document CHEMBL2029241, “Synthesis, characterization and in vitro anti-tumor activities of matrine derivatives” (Bioorg Med Chem Lett, 2012).

Holding throughout (type): functional, cell-based
Experiment [1] is described as follows: Cytotoxicity against human TW03 cells after 48 hrs by MTT assay. (In general: Formazan colour is commonly taken as a measure of viable cells.)
In experiment [2] the test system is B16-F10. Briefly: Cytotoxicity against mouse B16F10 cells after 48 hrs by MTT assay.
A short description of experiment [3]: Cytotoxicity against human HEP7402 cells after 48 hrs by MTT assay.
Experiment [4] concerns A549. Briefly: Cytotoxicity against human A549 cells after 48 hrs by MTT assay.
Where [5] appears, read: Homo sapiens, TW03, 48 h, read-out: IC50.
Where [6] appears, read: Mus musculus, B16-F10, 48 h, read-out: IC50.
Where [7] appears, read: Homo sapiens, 48 h, read-out: IC50.
[8] abbreviates: Homo sapiens, A549, 48 h, read-out: IC50.

The structures appear in SMILES notation. In brackets after ≈: the same amount, converted by molar mass.

For orientation: IC50 means the concentration needed to halve the response being measured.

Regarding `O=C(c1ccco1)C1CC[C@@H]2[C@H]3CCCN4CCC[C@@H](CN2C1=O)[C@@H]34` (stereo partly drawn), the IC50 in experiment [1] (setting [5]) was 4.9 µg/mL (≈ 14.3 µM); in experiment [2] (setting [6]) it was 12.9 µg/mL (≈ 37.7 µM); in experiment [3] (setting [7]), 11.8 µg/mL (≈ 34.5 µM); in experiment [4] (setting [8]), 6.6 µg/mL (≈ 19.3 µM).

For the compound `O=C1/C(=C/c2cccc(F)c2)CC[C@@H]2[C@H]3CCCN4CCC[C@@H](CN12)[C@@H]34`, the half-maximal inhibitory concentration (IC50) was determined as 2.2 µg/mL (≈ 6.21 µM) in experiment [1] (setting [5]), 2.7 µg/mL (≈ 7.62 µM) in experiment [2] (setting [6]), 1.5 µg/mL (≈ 4.23 µM) in experiment [3] (setting [7]) and 3.4 µg/mL (≈ 9.59 µM) in experiment [4] (setting [8]).

As to `CCOC(=O)CCCC1NCC2CCCN3CCCC1C23` (stereo not drawn), the IC50 entry is “Not Active” in experiment [1] (tw03), “Not Active” in experiment [2] (b16-f10), “Not Active” in experiment [3] and 32.3 µg/mL (≈ 110 µM) in experiment [4] (setting [8]).

As for `O=C1CCC[C@@H]2[C@H]3CCCN4CCC[C@@H](CN12)[C@@H]34` [MATRINE], the IC50 in experiment [1] (setting [5]) turned out to be 16.3 µg/mL (≈ 65.6 µM); in experiment [2] (setting [6]), 17 µg/mL (≈ 68.4 µM); in experiment [3] (setting [7]), 15.3 µg/mL (≈ 61.6 µM); in experiment [4] (setting [8]), 9.7 µg/mL (≈ 39.1 µM).

As to `O=C1/C(=C/c2ccc(Cl)cc2)CC[C@@H]2[C@H]3CCCN4CCC[C@@H](CN12)[C@@H]34`, the IC50 in experiment [1] (setting [5]) was found to be 2.8 µg/mL (≈ 7.55 µM); in experiment [2] (setting [6]) it was 3.9 µg/mL (≈ 10.5 µM); in experiment [3] (setting [7]), 1.6 µg/mL (≈ 4.31 µM); in experiment [4] (setting [8]), 2.6 µg/mL (≈ 7.01 µM).

On to `COc1ccc(/C=C2\CC[C@@H]3[C@H]4CCCN5CCC[C@@H](CN3C2=O)[C@@H]45)cc1`, for which the IC50 in experiment [1] (setting [5]) was found to be 1.2 µg/mL (≈ 3.27 µM); in experiment [2] (setting [6]), 0.8 µg/mL (≈ 2.18 µM); in experiment [3] (setting [7]), 0.5 µg/mL (≈ 1.36 µM); in experiment [4] (setting [8]) it was 0.6 µg/mL (≈ 1.64 µM).

On to `C1CCN2C[C@@H]3CCCN4CCC[C@@H]([C@H]34)[C@H]2C1`, for which the concentration for half-maximal inhibition (IC50) result in experiment [1] (tw03), in experiment [2] (b16-f10), in experiment [3] and in experiment [4] (a549) was “Not Active” each time.

Take `O=C(c1ccccc1)C1CC[C@@H]2[C@H]3CCCN4CCC[C@@H](CN2C1=O)[C@@H]34` (stereo partly drawn): the IC50 worked out at 2.4 µg/mL (≈ 6.81 µM) in experiment [1] (setting [5]), 10.6 µg/mL (≈ 30.1 µM) in experiment [2] (setting [6]), 4.3 µg/mL (≈ 12.2 µM) in experiment [3] (setting [7]) and 3.6 µg/mL (≈ 10.2 µM) in experiment [4] (setting [8]).

Take `O=C1/C(=C/c2ccc(F)cc2)CC[C@@H]2[C@H]3CCCN4CCC[C@@H](CN12)[C@@H]34`: the IC50 in experiment [1] (setting [5]) came out at 1.9 µg/mL (≈ 5.36 µM); in experiment [2] (setting [6]) it was 2.5 µg/mL (≈ 7.05 µM); in experiment [3] (setting [7]), 1.8 µg/mL (≈ 5.08 µM); in experiment [4] (setting [8]), 3 µg/mL (≈ 8.46 µM).

On to `NC(=O)CCCC1NCC2CCCN3CCCC1C23` (stereo not drawn), for which the IC50 in experiment [1] (setting [5]) is 21.7 µg/mL (≈ 81.8 µM); in experiment [2] (setting [6]), 12.9 µg/mL (≈ 48.6 µM); in experiment [3] (setting [7]), 11.4 µg/mL (≈ 43 µM); in experiment [4] (setting [8]), 18.6 µg/mL (≈ 70.1 µM).

Take `O=C1/C(=C/c2ccc(Br)cc2)CC[C@@H]2[C@H]3CCCN4CCC[C@@H](CN12)[C@@H]34`: the IC50 in experiment [1] (setting [5]) worked out at 3.2 µg/mL (≈ 7.7 µM); in experiment [2] (setting [6]), 2.6 µg/mL (≈ 6.26 µM); in experiment [3] (setting [7]) it was 0.7 µg/mL (≈ 1.69 µM); in experiment [4] (setting [8]) it was 1.9 µg/mL (≈ 4.57 µM).

As to `O=C1/C(=C/c2ccc(Cl)c(Cl)c2)CC[C@@H]2[C@H]3CCCN4CCC[C@@H](CN12)[C@@H]34`, the IC50 in experiment [1] (setting [5]) amounted to 6.3 µg/mL (≈ 15.5 µM); in experiment [2] (setting [6]), 6.5 µg/mL (≈ 16 µM); in experiment [3] (setting [7]), 11.3 µg/mL (≈ 27.9 µM); in experiment [4] (setting [8]), 4.7 µg/mL (≈ 11.6 µM).

As to `O=C1/C(=C/c2ccccc2)CC[C@@H]2[C@H]3CCCN4CCC[C@@H](CN12)[C@@H]34`, the IC50 came out at 2.4 µg/mL (≈ 7.13 µM) in experiment [1] (setting [5]), 5.7 µg/mL (≈ 16.9 µM) in experiment [2] (setting [6]), 10 µg/mL (≈ 29.7 µM) in experiment [3] (setting [7]) and 4.6 µg/mL (≈ 13.7 µM) in experiment [4] (setting [8]).

With `COc1cc2c(c(OC)c1OC)-c1ccc(OC)c(=O)cc1[C@@H](NC(C)=O)CC2` [COLCHICINE], the IC50 in experiment [1] (setting [5]) worked out at 1.3 µg/mL (≈ 3.25 µM); in experiment [2] (setting [6]) it was 0.8 µg/mL (≈ 2 µM); in experiment [3] (setting [7]) it was 0.4 µg/mL (≈ 1 µM); in experiment [4] (setting [8]), 0.2 µg/mL (≈ 0.501 µM).

Regarding `O=C1/C(=C/c2ccncc2)CC[C@@H]2[C@H]3CCCN4CCC[C@@H](CN12)[C@@H]34`, the IC50 in experiment [1] (setting [5]) worked out at 4.4 µg/mL (≈ 13 µM); in experiment [2] (setting [6]), 6.2 µg/mL (≈ 18.4 µM); in experiment [3] (setting [7]) it was 8.6 µg/mL (≈ 25.5 µM); in experiment [4] (setting [8]), 5.7 µg/mL (≈ 16.9 µM).

Consider `O=C(c1cccs1)C1CC[C@@H]2[C@H]3CCCN4CCC[C@@H](CN2C1=O)[C@@H]34` (stereo partly drawn), for which the 50% inhibitory concentration (IC50) in experiment [1] (setting [5]) stood at 8.1 µg/mL (≈ 22.6 µM); in experiment [2] (setting [6]) it was 4.5 µg/mL (≈ 12.6 µM); in experiment [3] (setting [7]), 7.5 µg/mL (≈ 20.9 µM); in experiment [4] (setting [8]) it was 2.3 µg/mL (≈ 6.42 µM).

`COC(=O)CCCC1NCC2CCCN3CCCC1C23` (stereo not drawn): the IC50 result in experiment [1] (tw03) was “Not Active”; in experiment [2] (b16-f10), “Not Active”; in experiment [3], “Not Active”; in experiment [4] (setting [8]), 31.4 µg/mL (≈ 112 µM).

Consider `O=C1/C(=C/c2cccc([N+](=O)[O-])c2)CC[C@@H]2[C@H]3CCCN4CCC[C@@H](CN12)[C@@H]34`, for which the IC50 in experiment [1] (setting [5]) came to 2.4 µg/mL (≈ 6.29 µM); in experiment [2] (setting [6]) it was 8.5 µg/mL (≈ 22.3 µM); in experiment [3] (setting [7]) it was 5.3 µg/mL (≈ 13.9 µM); in experiment [4] (setting [8]), 7.6 µg/mL (≈ 19.9 µM).

`O=C(O)CCCC1NCC2CCCN3CCCC1C23` (stereo not drawn): the half-maximal inhibitory concentration (IC50) result in experiment [1] (tw03), in experiment [2] (b16-f10), in experiment [3] and in experiment [4] (a549) was “Not Active” each time.

As for `COc1cc(/C=C2\CC[C@@H]3[C@H]4CCCN5CCC[C@@H](CN3C2=O)[C@@H]45)cc(OC)c1OC`, the IC50 in experiment [1] (setting [5]) was found to be 5.5 µg/mL (≈ 12.9 µM); in experiment [2] (setting [6]), 9.8 µg/mL (≈ 23 µM); in experiment [3] (setting [7]), 7.8 µg/mL (≈ 18.3 µM); in experiment [4] (setting [8]), 3.8 µg/mL (≈ 8.91 µM).

`COc1cccc(/C=C2\CC[C@@H]3[C@H]4CCCN5CCC[C@@H](CN3C2=O)[C@@H]45)c1`: the IC50 in experiment [1] (setting [5]) was found to be 6.4 µg/mL (≈ 17.5 µM); in experiment [2] (setting [6]) it was 8.7 µg/mL (≈ 23.7 µM); in experiment [3] (setting [7]) it was 3.4 µg/mL (≈ 9.28 µM); in experiment [4] (setting [8]), 2.3 µg/mL (≈ 6.28 µM).

With `O=C1/C(=C/c2ccc([N+](=O)[O-])cc2)CC[C@@H]2[C@H]3CCCN4CCC[C@@H](CN12)[C@@H]34`, the IC50 in experiment [1] (setting [5]) came out at 3.7 µg/mL (≈ 9.7 µM); in experiment [2] (setting [6]), 2.8 µg/mL (≈ 7.34 µM); in experiment [3] (setting [7]), 8.7 µg/mL (≈ 22.8 µM); in experiment [4] (setting [8]), 6.2 µg/mL (≈ 16.3 µM).
